This note sets out measurements from the NIST ThermoML archive (doi:10.1016/j.jct.2009.10.007).

The nature of this data set: refractive index (Na D-line) (dimensionless); mn = molality of the nth substance listed, in mol/kg. The settings on record: 308.15 K, 101 kPa, Liquid, Standard Abbe refractometry.

± gives the expanded uncertainty stated by the source.

A word on the refractive index: it is a measure of how strongly the sample bends light. With `O=C([O-])CC(O)(CC(=O)[O-])C(=O)[O-].[Na+].[Na+].[Na+]` [trisodium citrate] + O, the refractive index was 1.3328 ± 0.0005 (m1 = 0.034); 1.3345 ± 0.0005 (m1 = 0.0682); 1.3361 ± 0.0005 (m1 = 0.1015); 1.3379 ± 0.0005 (m1 = 0.1424); 1.3393 ± 0.0005 (m1 = 0.1771); 1.341 ± 0.0005 (m1 = 0.2157). Further, the refractive index (m1 = 0.2524) is listed as 1.3425 ± 0.0005, the refractive index (m1 = 0.2847) was 1.3438 ± 0.0005, the refractive index (m1 = 0.3319) is recorded as 1.3456 ± 0.0005 and the refractive index (m1 = 0.3674) turned out to be 1.3469 ± 0.0005.

For the molecule `O` [water] + CCCCn1cc[n+](C)c1.[Br-], the refractive index (m2 = 0) is given as 1.3311 ± 0.0005.

As for `O` [water] + O=C([O-])CC(O)(CC(=O)[O-])C(=O)[O-].[Na+].[Na+].[Na+], under “m2 = 0”, the refractive index is recorded as 1.3311 ± 0.0005.
